# Measured values: PMC9008429, “Identification of a New Cholesterol‐Binding Site within the IFN‐γ Receptor that is Required for Signal Transduction” (Advanced Science, 2022)
# Residue numbers refer to the chain shown, from its start.
# Experiments:
# IFN-γR2 [1] = target: T1, IFN-γR2 (Homo sapiens, UniProt P38484, L250T/I251T/G254F); assay: in vivo photoaffinity labelling, UV cross-link, anti-GFP IP, autoradiography; format: cell-based; settings: 3 µM probe, 6 h; full-length GFP fusion, CHO and HAP1 IFN-γR2 KO cells; covalent; labelled compound; with or without IFN-γ
# T1 construct: gene IFNGR2; full-length, C-terminal GFP fusion (peGFP-N1); transiently expressed in CHO (with IFN-γR1-RLuc) or HAP1 IFN-γR2 KO cells
# T1 sequence (P38484 22-337 L250T/I251T/G254F): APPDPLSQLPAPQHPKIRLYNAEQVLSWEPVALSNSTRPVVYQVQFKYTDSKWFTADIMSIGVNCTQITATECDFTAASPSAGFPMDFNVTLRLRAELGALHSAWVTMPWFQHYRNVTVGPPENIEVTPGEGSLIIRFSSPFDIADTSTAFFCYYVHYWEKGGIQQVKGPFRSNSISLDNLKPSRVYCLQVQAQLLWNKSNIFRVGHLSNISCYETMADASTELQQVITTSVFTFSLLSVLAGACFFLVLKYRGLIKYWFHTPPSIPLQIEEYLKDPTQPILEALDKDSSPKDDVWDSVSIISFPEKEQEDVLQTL
# IFN-γR2 [2] = target: T2, IFN-γR2 (Homo sapiens, UniProt P38484); assay: competition of photoaffinity labelling in living cells, anti-GFP IP, autoradiography; format: cell-based; settings: competes with [3H]-photo-chol, dose-dependent; curve only in supplement
# T2 construct: gene IFNGR2; full-length, C-terminal GFP fusion (peGFP-N1); transiently expressed in CHO (with IFN-γR1-RLuc) or HAP1 IFN-γR2 KO cells; in the functional receptor two R1 and two R2 chains
# T2 sequence (P38484 22-337): T1 sequence (P38484 22-337 L250T/I251T/G254F) with T229L, T230I, F233G
Compound,% reduction of chol binding vs wild type (IFN-γR2 [1]),"competition of photoaffinity labelling in living cells, anti-GFP IP, autoradiogr (IFN-γR2 [2])"
[3H]-photo-chol,> 50%,
CC(C)CCC[C@@H](C)[C@H]1CC[C@H]2[C@@H]3CC=C4C[C@@H](O)CC[C@]4(C)[C@H]3CC[C@]12C [chol],,cross‐linking between [^3H]‐photo‐chol and IFN‐γR2 was competed in a dose‐dependent manner
